Measured values: patent US20190185518A9, “WARHEAD-CONTAINING PEPTIDOMIMETIC MACROCYCLES AS MODULATORS OF BFL-1” (AILERON Therapeutics, Inc., priority 2017, published 2019)
Positions of bridges follow the written chain, without caps; N, C: chain ends. Non-standard residues stand in square brackets, D forms with d. Residues, ends and D or L forms follow the SMILES beside them. Gly(1-adamantyl) = N[C@H](C(=O)O)C12CC3CC(CC(C3)C1)C2; R8 = C=CCCCCCC[C@@](C)(N)C(=O)O; Cit = NC(=O)NCCC[C@H](N)C(=O)O; αMeL = CC(C)C[C@](C)(N)C(=O)O; S5 = C=CCCC[C@](C)(N)C(=O)O

Legend:
[1] = target: Bcl-2 (Homo sapiens, UniProt P10415); experiment: Ki determination for Bcl-2 (BCL-2 family binding spectrum); details: read-out: Ki BCL-2
Chain of Bcl-2 (P10415 whole entry, species assumed): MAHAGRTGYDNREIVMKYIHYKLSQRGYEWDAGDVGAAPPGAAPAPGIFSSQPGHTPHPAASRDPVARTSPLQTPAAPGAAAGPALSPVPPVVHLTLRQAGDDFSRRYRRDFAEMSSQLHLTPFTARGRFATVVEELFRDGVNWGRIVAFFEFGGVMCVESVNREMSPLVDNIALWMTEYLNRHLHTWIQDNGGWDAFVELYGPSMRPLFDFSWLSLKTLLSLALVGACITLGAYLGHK
Excerpt: To assess the binding and affinity of compounds that antagonize the interaction between a peptide and an acceptor protein, a fluorescence polarization assay (FPA) utilizing a fluoresceinated peptidomimetic macrocycle derived from a peptidomimetic precursor sequence is used, for example. The FPA technique measures the molecular orientation and mobility using polarized light and fluorescent tracer. […] A compound that antagonizes the interaction between the fluoresceinated peptidomimetic macrocycle and an acceptor protein will be detected in a competitive binding FPA experiment.
For example, putative antagonist compounds (1 nM to 1 mM) and a fluoresceinated peptidomimetic macrocycle (25 nM) are incubated with the acceptor protein (50 nM) in binding buffer (140 mM NaCl, 50 mM Tris-HCL, pH 7.4) for 30 minutes at room temperature. Antagonist binding activity is measured, for example, by fluorescence polarization on a luminescence spectrophotometer (e.g. Perkin-Elmer LS50B). Kd values may be determined by nonlinear regression analysis using, for example, Graphpad Prism software (GraphPad Software, Inc., San Diego, Calif.).

[2] = target: Bcl-xL (Homo sapiens, UniProt Q07817); experiment: Ki determination for Bcl-xL (BCL-2 family binding spectrum); details: read-out: Ki BCL-XL
Chain of Bcl-xL (Q07817 whole entry, species assumed): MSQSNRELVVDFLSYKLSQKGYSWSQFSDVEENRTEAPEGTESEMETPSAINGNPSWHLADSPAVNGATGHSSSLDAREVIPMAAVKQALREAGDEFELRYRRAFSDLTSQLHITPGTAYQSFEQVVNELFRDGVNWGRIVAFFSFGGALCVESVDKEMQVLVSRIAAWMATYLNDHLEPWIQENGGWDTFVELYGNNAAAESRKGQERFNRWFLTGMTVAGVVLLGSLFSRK
In short: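 Competitive fluorescence polarization: compounds (1 nM–1 mM) with 25 nM fluoresceinated peptidomimetic macrocycle and 50 nM protein in 140 mM NaCl, 50 mM Tris-HCl pH 7.4, 30 min at room temperature. Constants from nonlinear regression.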

[3] = target: Mcl-1 (Homo sapiens, UniProt Q07820); experiment: Ki determination for Mcl-1 (BCL-2 family binding spectrum); details: read-out: Ki MCL-1
Chain of Mcl-1 (Q07820 whole entry, species assumed): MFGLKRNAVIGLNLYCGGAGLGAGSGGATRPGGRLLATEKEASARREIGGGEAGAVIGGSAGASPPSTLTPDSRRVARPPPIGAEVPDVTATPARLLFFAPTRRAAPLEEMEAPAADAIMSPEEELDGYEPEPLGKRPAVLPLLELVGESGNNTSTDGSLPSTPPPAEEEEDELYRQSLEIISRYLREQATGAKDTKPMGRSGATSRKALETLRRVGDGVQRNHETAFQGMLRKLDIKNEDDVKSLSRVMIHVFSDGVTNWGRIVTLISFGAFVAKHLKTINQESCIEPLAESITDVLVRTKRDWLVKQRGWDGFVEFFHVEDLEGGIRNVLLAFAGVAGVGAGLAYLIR
In short: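 Binding to Mcl-1 was measured as displacement of a fluorescein-labelled macrocyclic peptidomimetic, read by fluorescence polarization. Constants were fitted by nonlinear regression.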

For CC[C@H](C)[C@H](NC(C)=O)C(=O)N[C@@H](C)C(=O)N[C@@H](CCC(N)=O)C(=O)N[C@@H](C)C(=O)N[C@@H](CC(C)C)C(=O)N[C@@H](CCCNC(=N)N)C(=O)N[C@]1(C)CCCCCCC=CCCC[C@@](C)(C(=O)N[C@@H](Cc2ccc(O)cc2)C(=O)N[C@@H](Cc2ccc(O)cc2)C(=O)N[C@@H](C)C(N)=O)NC(=O)[C@H](CC(N)=O)NC(=O)[C@H](C)NC(=O)[C@H](C)NC(=O)[C@H](CC(=O)O)NC(=O)CNC(=O)[C@H]([C@@H](C)CC)NC1=O [compound 1639] (Ac-IAQALR[R8]IGDAAN[S5]YYA-NH2; staple 7-14), the Ki [1] was > 1000 nM and the Ki [2] was > 1000 nM.
With CC[C@H](C)[C@H](NC(C)=O)C(=O)N[C@@H](Cc1c[nH]c2ccccc12)C(=O)N[C@H](C(=O)N[C@@H](C)C(=O)N[C@@H](CCC(N)=O)C(=O)N[C@@H](C)C(=O)N[C@H](C(=O)N[C@@H](CCCNC(=N)N)C(=O)N[C@]1(C)CCCCCC/C=C\CCC[C@@](C)(C(=O)N[C@@H](Cc2ccc(O)cc2)C(=O)N[C@@H](Cc2ccc(O)cc2)C(=O)N[C@@H](C)C(N)=O)NC(=O)[C@H](CC(N)=O)NC(=O)[C@H](Cc2ccccc2)NC(=O)[C@H](C)NC(=O)[C@H](CC(=O)O)NC(=O)CNC(=O)[C@H]([C@@H](C)CC)NC1=O)C12CC3CC(CC(C3)C1)C2)[C@@H](C)CC [compound 1689] (Ac-IWIAQA[Gly(1-adamantyl)]R[R8]IGDAFN[S5]YYA-NH2; staple (Z) 9-16) the Ki [1] was > 1000 nM and the Ki [2] was 110 nM.
In the case of CC[C@H](C)[C@H](NC(C)=O)C(=O)N[C@@H](Cc1c[nH]c2ccccc12)C(=O)N[C@H](C(=O)N[C@@H](C)C(=O)N[C@@H](CCC(N)=O)C(=O)N[C@@H](C)C(=O)N[C@@](C)(CC(C)C)C(=O)N[C@@H](CCCNC(=N)N)C(=O)N[C@]1(C)CCCCCCC=CCCC[C@@](C)(C(=O)N[C@@H](Cc2ccc(O)cc2)C(=O)N[C@@H](Cc2ccc(O)cc2)C(=O)N[C@@H](C)C(N)=O)NC(=O)[C@H](CC(N)=O)NC(=O)[C@H](Cc2ccccc2)NC(=O)[C@H](C)NC(=O)[C@H](CC(=O)O)NC(=O)CNC(=O)[C@H]([C@@H](C)CC)NC1=O)[C@@H](C)CC [compound 1767] (Ac-IWIAQA[αMeL]R[R8]IGDAFN[S5]YYA-NH2; staple 9-16), the Ki [1] is reported as > 1000 nM and the Ki [2] is reported as > 1000 nM.
In the case of CC[C@H](C)[C@H](NC(C)=O)C(=O)N[C@@H](Cc1c[nH]c2ccccc12)C(=O)N[C@H](C(=O)N[C@@H](Cc1ccccc1)C(=O)N[C@@H](C)C(=O)N[C@@H](C)C(=O)N[C@@H](CC(C)C)C(=O)N[C@@H](CCCNC(=N)N)C(=O)N[C@]1(C)CCCCCCC=CCCC[C@@](C)(C(=O)N[C@@H](Cc2ccc(O)cc2)C(=O)N[C@@H](Cc2ccc(O)cc2)C(=O)N[C@@H](C)C(N)=O)NC(=O)[C@H](CC(N)=O)NC(=O)[C@H](Cc2ccccc2)NC(=O)[C@H](C)NC(=O)[C@H](CC(=O)O)NC(=O)CNC(=O)[C@H]([C@@H](C)CC)NC1=O)[C@@H](C)CC [compound 1735] (Ac-IWIFAALR[R8]IGDAFN[S5]YYA-NH2; staple 9-16), the Ki [1] is reported as 125 nM and the Ki [2] is reported as 110 nM.
In the case of CC[C@H](C)[C@H](NC(C)=O)C(=O)N[C@@H](Cc1c[nH]c2ccccc12)C(=O)N[C@H](C(=O)N[C@@H](C)C(=O)N[C@@H](CCC(N)=O)C(=O)N[C@@H](C)C(=O)N[C@@H](CC(C)C)C(=O)N[C@@H](CCCNC(=N)N)C(=O)N[C@]1(C)CCCCCCC=CCCC[C@@](C)(C(=O)N[C@@H](Cc2ccc(O)cc2)C(=O)N[C@@H](Cc2ccc(O)cc2)C(=O)N[C@@H](C)C(N)=O)NC(=O)[C@H](CC(N)=O)NC(=O)[C@H](Cc2ccccc2)NC(=O)[C@H](CCC(N)=O)NC(=O)[C@H](CC(=O)O)NC(=O)CNC(=O)[C@H](C)NC1=O)[C@@H](C)CC [compound 1668] (Ac-IWIAQALR[R8]AGDQFN[S5]YYA-NH2; staple 9-16), the Ki [3] is reported as 122 nM, the Ki [1] is reported as 4.8 nM and the Ki [2] is reported as 1.9 nM.
Work on CC[C@H](C)[C@H](NC(C)=O)C(=O)N[C@@H](Cc1c[nH]c2ccccc12)C(=O)N[C@H](C(=O)N[C@@H](C)C(=O)N[C@@H](CCC(N)=O)C(=O)N[C@@H](C)C(=O)N[C@@H](CC(C)C)C(=O)N[C@@H](CCCNC(=N)N)C(=O)N[C@]1(C)CCCCCCC=CCCC[C@@](C)(C(=O)N[C@@H](Cc2ccc(O)cc2)C(=O)N[C@@H](Cc2ccc(O)cc2)C(=O)N[C@@H](C)C(N)=O)NC(=O)[C@H](CC(N)=O)NC(=O)[C@H](Cc2ccccc2)NC(=O)[C@H](CCC(N)=O)NC(=O)[C@H](CC(=O)O)NC(=O)CNC(=O)[C@H]([C@@H](C)CC)NC1=O)[C@@H](C)CC [compound 1650] (Ac-IWIAQALR[R8]IGDQFN[S5]YYA-NH2; staple 9-16) yielded a Ki [3] of 5.2 nM, a Ki [1] of 67 nM and a Ki [2] of 12 nM.
Work on CC[C@H](C)[C@H](NC(C)=O)C(=O)N[C@@H](Cc1c[nH]c2ccccc12)C(=O)N[C@H](C(=O)N[C@@H](C)C(=O)N[C@@H](C)C(=O)N[C@@H](C)C(=O)N[C@@H](CC(C)C)C(=O)N[C@@H](CCCNC(=N)N)C(=O)N[C@]1(C)CCCCCCC=CCCC[C@@](C)(C(=O)N[C@@H](Cc2ccc(O)cc2)C(=O)N[C@@H](Cc2ccc(O)cc2)C(=O)N[C@@H](C)C(N)=O)NC(=O)[C@H](CC(N)=O)NC(=O)[C@H](Cc2ccccc2)NC(=O)[C@H](CCC(=O)O)NC(=O)[C@H](CC(=O)O)NC(=O)CNC(=O)[C@H]([C@@H](C)CC)NC1=O)[C@@H](C)CC [compound 1651] (Ac-IWIAAALR[R8]IGDEFN[S5]YYA-NH2; staple 9-16) yielded a Ki [3] of 1 nM, a Ki [1] of 6 nM and a Ki [2] of 1 nM.
CC[C@H](C)[C@H](NC(C)=O)C(=O)N[C@@H](Cc1c[nH]c2ccccc12)C(=O)N[C@H](C(=O)N[C@@H](C)C(=O)N[C@@H](CCC(N)=O)C(=O)N[C@@H](C)C(=O)N[C@@H](CC(C)C)C(=O)N[C@@H](CCCNC(=N)N)C(=O)N[C@]1(C)CCCCCCC=CCCC[C@@](C)(C(=O)N[C@@H](Cc2ccc(O)cc2)C(=O)N[C@@H](Cc2ccc(O)cc2)C(=O)N[C@@H](C)C(N)=O)NC(=O)[C@H](CC(N)=O)NC(=O)[C@H](C)NC(=O)[C@H](C)NC(=O)[C@H](CC(=O)O)NC(=O)CNC(=O)[C@H]([C@@H](C)CC)NC1=O)[C@@H](C)CC [compound 1661] (Ac-IWIAQALR[R8]IGDAAN[S5]YYA-NH2; staple 9-16) gave a Ki [3] of 7.5 nM, a Ki [1] of 140 nM and a Ki [2] of 402 nM.
With CC[C@H](C)[C@H](NC(C)=O)C(=O)N[C@@H](C)C(=O)N[C@@H](CCC(N)=O)C(=O)N[C@@H](C)C(=O)N[C@@H](CC(C)C)C(=O)N[C@@H](CCCNC(=N)N)C(=O)N[C@]1(C)CCCCCCC=CCCC[C@@](C)(C(=O)N[C@@H](Cc2ccc(O)cc2)C(=O)N[C@@H](C)C(=O)N[C@@H](C)C(N)=O)NC(=O)[C@H](CC(N)=O)NC(=O)[C@H](Cc2ccccc2)NC(=O)[C@H](C)NC(=O)[C@H](CC(=O)O)NC(=O)CNC(=O)[C@H]([C@@H](C)CC)NC1=O [compound 1632] (Ac-IAQALR[R8]IGDAFN[S5]YAA-NH2; staple 7-14) the Ki [1] was > 1000 nM and the Ki [2] was > 1000 nM.
CC[C@H](C)[C@H](NC(C)=O)C(=O)N[C@@H](Cc1c[nH]c2ccccc12)C(=O)N[C@H](C(=O)N[C@@H](C)C(=O)N[C@@H](CCC(N)=O)C(=O)N[C@@H](C)C(=O)N[C@@H](CC(C)C)C(=O)N[C@@H](Cc1c[nH]cn1)C(=O)N[C@]1(C)CCCCCCC=CCCC[C@@](C)(C(=O)N[C@@H](Cc2ccc(O)cc2)C(=O)N[C@@H](Cc2ccc(O)cc2)C(=O)N[C@@H](C)C(N)=O)NC(=O)[C@H](CC(N)=O)NC(=O)[C@H](Cc2ccccc2)NC(=O)[C@H](C)NC(=O)[C@H](CC(=O)O)NC(=O)CNC(=O)[C@H]([C@@H](C)CC)NC1=O)[C@@H](C)CC [compound 1657] (Ac-IWIAQALH[R8]IGDAFN[S5]YYA-NH2; staple 9-16) was tested, and the Ki [3] was > 1000 nM, the Ki [1] was > 1000 nM and the Ki [2] was > 1000 nM.
In the case of CC[C@H](C)[C@H](NC(C)=O)C(=O)N[C@@H](Cc1c[nH]c2ccccc12)C(=O)N[C@H](C(=O)N[C@@H](C)C(=O)N[C@@H](CCC(N)=O)C(=O)N[C@@H](C)C(=O)N[C@@H](CC(C)C)C(=O)N[C@@H](CCCNC(N)=O)C(=O)N[C@]1(C)CCCCCCC=CCCC[C@@](C)(C(=O)N[C@@H](Cc2ccc(O)cc2)C(=O)N[C@@H](Cc2ccc(O)cc2)C(=O)N[C@@H](C)C(N)=O)NC(=O)[C@H](CC(N)=O)NC(=O)[C@H](C(C)C)NC(=O)[C@H](C)NC(=O)[C@H](CC(=O)O)NC(=O)CNC(=O)[C@H]([C@@H](C)CC)NC1=O)[C@@H](C)CC [compound 1774] (Ac-IWIAQAL[Cit][R8]IGDAVN[S5]YYA-NH2; staple 9-16), the Ki [1] is reported as > 1000 nM and the Ki [2] is reported as > 1000 nM.
In the case of CC[C@H](C)[C@H](NC(C)=O)C(=O)N[C@@H](Cc1c[nH]c2ccccc12)C(=O)N[C@H](C(=O)N[C@@H](C)C(=O)N[C@@H](CCC(N)=O)C(=O)N[C@@H](C)C(=O)N[C@@H](CC(C)C)C(=O)N[C@@H](CCCNC(N)=O)C(=O)N[C@]1(C)CCCCCCC=CCCC[C@@](C)(C(=O)N[C@@H](Cc2ccc(O)cc2)C(=O)N[C@@H](Cc2ccc(O)cc2)C(=O)N[C@@H](C)C(N)=O)NC(=O)[C@H](CC(N)=O)NC(=O)[C@H](C)NC(=O)[C@H](C)NC(=O)[C@H](CC(=O)O)NC(=O)CNC(=O)[C@H]([C@@H](C)CC)NC1=O)[C@@H](C)CC [compound 1773] (Ac-IWIAQAL[Cit][R8]IGDAAN[S5]YYA-NH2; staple 9-16), the Ki [1] is reported as > 1000 nM and the Ki [2] is reported as > 1000 nM.
